In one series the test system is SH-SY5Y cells. Nature of the series: Fluorescence imaging of Cu^+ and Cu^2+ in live SH-SY5Y cells (PDTC, BCS, Aβ40). The format is cell-based, human.
Series [1] is described as follows: Point mutation gel cleavage assay of Fe^3+ B12 DNAzyme and substrate (heat map). The class given is biochemical. The settings on record: 100 μM FeCl3, pH 5.5, overnight; for activity of mutated substrate strand normalized to original Fe^3+ B12 Substrate: original DNAzyme strand. The method, then: FIG. 5 depicts a heat map illustrating the impact of point mutations within the catalytic core of the Fe^3+ B12 DNAzyme, against the unaltered Fe^3+ B12 substrate strand for comparative analysis with 5 mM Bis Tris, 40 mM Sodium Acetate, 200 mM NaCl at pH 5.5 with 100 μM FeCl3. The reaction occurred overnight at room temperature and analyzed by polyacrylamide gel electrophoresis.
FIG. 6 depicts a heat map illustrating the impact of point mutations within the catalytic core of the Fe^3+ B12 Substrate strand, against the unaltered Fe^3+ B12 DNAzyme strand for comparative analysis with 5 mM Bis Tris, 40 mM Sodium Acetate, 200 mM NaCl at pH 5.5 with 100 μM FeCl3. The reaction occurred overnight at room temperature and analyzed by polyacrylamide gel electrophoresis.
Point mutations were intentionally introduced into the Fe^3+ B12 DNAzyme catalytic core, and subsequently assessed in comparison to the unaltered Fe^3+ B12 substrate strand under controlled reaction conditions. These conditions included a solution comprising 5 mM Bis Tris, 40 mM Sodium Acetate, 200 mM NaCl at pH 5.5, with concentrations of 250 nM for both the mutated B12 DNAzyme Strand and the FAM-labeled Original B12 Substrate Strand, along with 100 μM FeCl3. The reaction proceeded overnight at ambient temperature, followed by analysis via electrophoresis on a 15% denaturing gel.
Point mutations were intentionally introduced into the Fe^3+ B12 Substrate Strand's catalytic core, and subsequently assessed in comparison to the unaltered Fe^3+ B12 DNAzyme strand under controlled reaction conditions. These conditions included a solution comprising 5 mM Bis Tris, 40 mM Sodium Acetate, 200 mM NaCl at pH 5.5, with concentrations of 250 nM for both the Original B12 DNAzyme Strand and the FAM-labeled mutated B12 Substrate Strand, along with 100 μM FeCl3. The reaction proceeded overnight at ambient temperature, followed by analysis via electrophoresis on a 15% denaturing gel.

A further series relates to cultured cell lines. Nature of the series: Iron redox changes in cultured cell lines with ferroptosis inducers and NCOA4 regulators. The class given is cell-based.
A short description of series [2]: Copper sensor signal turn-on and background in solution (inactive controls, upgraded version). The format is biochemical. The settings on record: for activity of inactive sequences to fluorophore labeled substrates: screening of Cu^2+ DNAzyme inactive sequences. The method, then: FIGS. 14A-14B depict fluorescence resulting of upgraded Cu DNAzyme. The concentration of Cu^2+ is 8 μM, the concentration of ascorbate is 50 μM.
Since the DNAzyme sensors are exposed to various nucleic acid enzymes in biological samples during imaging, it is common to have some extent of sensor degradation and dehybridization, which can increase the background signal. Although the study applied modifications to the end of DNA strands to minimize the exonuclease activities, the background could not be fully removed. Thus, it is critical to estimate the background signal levels for accurate background subtraction and more precise signal quantification.
In this iE design, the catalytic core sequence are converted into complement sequence of the original active sequences.

The subject of another series is HepG2 or Hela cells. Nature of the series: Simultaneous imaging of labile Fe^2+ and Fe^3+ in living cells treated with Tf or DFO. The format is cell-based. The settings on record: treated cells. The method, then: For delivery of DNAzyme sensors using PEI (66, 67), the corresponding Fe(II)-H5-ErS, Fe(II)-H5-iErS, Fe(III)-B12-ErS, and Fe(III)-B12-iErS (final concentration of 10 μM) were mixed in the Fe^2+ buffer and Fe^3+ buffer separately. The mixtures were annealed at 95° C. for 5 min and stored at room temperature to allow full hybridization. PEI (25 kDa) was dissolved in water at 1 mg/ml. […] The normal cell medium was replaced with iron-deficient medium before the PEI-ErS or PEI-iErS was added to the cells grown in the plates.
After incubating HepG2 cells with PEI-ErS or PEI-iErS complex for 4 hours, cells were washed with phosphate-buffered saline (PBS) twice to remove excess amounts of complexes in medium. Then, the cells were stained by Hoechst 33258 for 15 min. Images were obtained using a Zeiss LSM 880 confocal microscope at 63× oil objective lens with numerical aperture 1.40 and immersion medium Immersol 518 F (Zeiss) at the UIUC IGB Core Facilities. Florescence emission of Hoechst 33258 was measured over 450 to 500 nm with excitation at 401 nm. Fe(II)-H5 was excited by 488 nm and measured over 500 to 550 nm, and Fe(III)-B12 was excited at 633 nm and measured over 640 to 700 nm. A laser power of 67% and pinhole size of 1 […] (AU) were used for the cellular images. Acquired images were analyzed by ImageJ using JACoP (88, 89). No background subtraction, Z-stacks, Gaussian blur filter, or change thresholds were performed for visualizing the figures. For cell fluorescence quantification, the study quantified the average fluorescence signals intensity in five cells (for TurboFect transfected cells) or five LysoTracker-labeled regions in different cells (for PEI transfected cells), per picture and three pictures per group with Image J (88), for the statistical comparison between groups.
Simultaneous imaging of labile Fe^2+ and Fe^3+ in living cells: HepG2 or Hela cells were cultured in glass-bottom dishes until about 70% confluence. The cells were pretreated with iron-deficient MEM containing either 100 μM DFO, 100 μM ferric ammonium citrate, […] holo-Tf, or 50 μM Tf for 4 hours, and then, the medium was replaced with an iron-deficient MEM containing PEI-ErS or PEI-iErS complexes or Opti-MEM containing 1 μl of TurboFect transfection reagent as described above for 4 hours. Before imaging, the cells were stained by LysoTracker Red and Hoechst 33258 for 15 min. After washing with PBS, the cells were incubated in iron-deficient MEM or regular DMEM, respectively, during the imaging.
Data processing and statistical analysis: To have a direct comparison of the iron amount between groups, the background signals were normalized by subtracting the fluorescence signals in iErS groups from the ErS groups (F-F0). No Z-stacks or change thresholds were used for statistical analysis. Graphs were plotted with GraphPad (GraphPad Software Inc.) or Origin (OriginLabs Corporation) and correspond to a single experiment. Bars represent means±SEM. Two-tailed distribution and two-sample equal variance t test were used for analyzing significance. Dixon's Q tests were performed to identify and exclude outliners. *P<0.05, **P<0.01, and ***P <0.001. […] The presented data described the quantification from single representative replicates from those biological replicates.

Series [3] can be described thus: PAGE gel activity assays of Fe^3+ B12 DNAzyme (cleavage site, truncation, pH, buffer, mutation combinations, selectivity). The class given is biochemical. The settings on record: presence of Fe^3+. The source says: RNA Cleavage Dependence of Fe^2+ H5 and Fe^3+ B12 DNAzymes: To investigate the Fe^2+ H5 and Fe^3+ B12 DNAzymes, various cleavage site modifications were incorporated into the substrate strands. The original Fe^2+ H5 DNAzyme was combined with Fe^2+ H5 substrate strands containing either a 2′-hydroxyl (2′OH), 2′-hydrogen (2′H), or 2′O-methyl (2′OMe) at the cleavage site. The original Fe^2+ H5 DNAzyme cleaves the Fe^2+ H5 substrate strand containing 2′OH at the cleavage site in the presence of Fe^2+ under anaerobic conditions. […] Similarly, the original Fe^3+ B12 DNAzyme was combined with Fe^3+ B12 substrate strands containing either 2′OH, 2′H, or 2′OMe at the cleavage site. The original Fe^3+ B12 DNAzyme cleaves the Fe^3+ B12 substrate strand containing 2′OH at the cleavage site in the presence of Fe^3+. […]
Truncations of Fe^2+ H5 and Fe^3+ B12 DNAzymes' Binding Arms: To further investigate the Fe^2+ H5 and Fe^3+ B12 DNAzymes, the DNAzymes were truncated at the 5′ and 3′ ends and tested using the FAM-labeled original substrate strand through activity assays assessed by PAGE gel. […]
Similarly, the pH dependency of Fe^3+ B12 was tested across a range of pH 4.0 to 6.0 with 100 μM FeCl3. […] Fluorescence intensity was monitored over time using a 5′ Alexa Fluor™ 647-labeled substrate and a 3′ Iowa Black™ RQ quencher-labeled DNAzyme at an enzyme-to-substrate ratio of 1:1. […]

Read-outs that look alike come from different tables or passages of the source. In the oligonucleotide strings, read from the 5' end, every base follows the letter of its sugar. An asterisk marks phosphorothioate; unmarked linkages are phosphodiester. Other units and linkages are bracketed, terminal groups are in braces. A string of capitals states the bases alone. {3IABkFQ} = Iowa Black FQ quencher; d = 2'-deoxy (DNA); m = 2'-O-methyl

For the molecule Amyloid-β (1-40) peptide [Aβ40], the “fluorescence signals of intracellular Cu^+ and Cu^2+ DNAzyme” value in the series on SH-SY5Y cells (pretreated 24 h with monomers, oligomers and fibrils) is on record as “enhanced”.

Take “Fe^3+ B12 Substrate C15A (CTCTATTAGGGAGAATCGCATGCCGC; listed as DNA, chemistry not fully specified)”: the “activity of mutated substrate strand normalized to original Fe^3+ B12 Substrate” value in series [1] is “heightened activity”.

Take “Fe^3+ B12 DNAzyme C20T (GCGGCATGCGCGTTTGCGGTACCTAAACGCTCCTAATAGAG; DNA, backbone not given here)”: the “activity of mutated DNAzyme strand normalized to original Fe^3+ B12 DNAzyme” value in series [1] (FAM-labeled original substrate) was “heightened activity”.

“Aβ40 oligomers: oligomeric aggregation state of Aβ40”: in the series with SH-SY5Y cells (10 μM, 24 h), the “fluorescence intensity of Cu^+ and Cu^2+ DNAzyme” value is listed as “significantly increased”.

In the case of `COC(=O)CNC(=O)C(=O)OC` [DMOG], in the series on cultured cell lines (cells incubated with NCOA4 stimulator), the “Fe^3+/Fe^2+ ratio (Fe redox) with elevation of NCOA4” value is “increase”.

Regarding `[Cl-].[Cl-].[Co+2]` [CoCl2], the “Fe^3+/Fe^2+ ratio (Fe redox) with elevation of NCOA4” value in the series with cultured cell lines was “increase”.

With `S=C(S)N1CCCC1` [PDTC, pyrrolidine dithiocarba-mate], the “fluorescence signal of both Cu^+ and Cu^2+ sensor” value is “significant increase” in the series with SH-SY5Y cells (50 PM PDTC) and “increased” in the series on SH-SY5Y cells (addition of PDTC with Cu^2+, dose-dependent manner).

Take “Cu2 iE polyT: inactive enzyme strand (TTTCGCCATCTTCTTTTTTTTATAGTGACT; DNA, backbone not given here; further chemistry not fully specified)”: in series [2], the “activity of inactive sequences to fluorophore labeled substrates” value is reported as “minimum activity”.

As to `CC(=O)N(O)CCCCCNC(=O)CCC(=O)N(O)CCCCCNC(=O)CCC(=O)N(O)CCCCCN` [DFO, deferoxamine, reference compound], the “decrease of the Fe^3+/Fe^2+ ratio” value in the series with HepG2 or Hela cells turned out to be 2.4 fold.

Turning to “Fe^3+ B12 Original Substrate (2′OMe) (dCdTdCdTdAdTdTdAmGdGdGdAdGdAdCdTdCdGdCdAdTdGdCdCdGdC)”, the “cleavage by the original Fe^3+ B12 DNAzyme” value in series [3] is recorded as “does not cleave”.

Consider “Fe^3+ B12 Substrate A14G (CTCTATTAGGGAGGCTCGCATGCCGC; listed as DNA, chemistry not fully specified)”, for which the “activity of mutated substrate strand normalized to original Fe^3+ B12 Substrate” value in series [1] was “heightened activity”.

“Fe^3+ B12 Original Substrate (2′H) (CTCTATTAGGGAGACTCGCATGCCGC; DNA, backbone not given here)”: in series [3], the “cleavage by the original Fe^3+ B12 DNAzyme” value is “does not cleave”.

Turning to “Cu2 iE polyT 3IBFQ: inactive enzyme strand (TTTCGCCATCTTCTTTTTTTTATAGTGACT; DNA, 3' {3IABkFQ}, backbone not given here)”, the “background signal of inactive sequence” value in series [2] (both fluorophore and quencher labels) is listed as “minimum background signal”.

On to `Cc1cc(-c2ccc(S(=O)(=O)O)cc2)c2ccc3c(-c4ccc(S(=O)(=O)O)cc4)cc(C)nc3c2n1` [BCS, bathocuproine disulphonate], for which the “fluorescence intensity of copper DNAzyme” value in the series on SH-SY5Y cells (150 μM or 200 μM BCS overnight) is listed as “significant decrease”.

Turning to “Cu2 iE complement: inactive enzyme strand (TTTCGCCATCTTCTGGTCCTTATAGTGACT; DNA, backbone not given here; further chemistry not fully specified)”, the “activity of inactive sequences to fluorophore labeled substrates” value in series [2] is “minimum activity”.

For the origin of these results see US20250314668A1, “DNAZYMES FOR SENSING AND IMAGING TARGET MOLECULES” (BOARD OF REGENTS, THE UNIVERSITY OF TEXAS SYSTEM, priority 2024, published 2025).
